Experimental findings from ChEMBL document CHEMBL1151652, “Constituents of Erysimum inconspicuum. Two sulfur-containing lactone compounds” (1985) are described below.

Values after ≈ are worked out from the molar mass of the structure shown.

The experiment has as its system KB. As to the kind of experiment: Cytotoxicity against human KB cells. The experiment is classed as functional. The settings on record: read-out: ED50 (the source's name).

Turning to `CS(=O)(=O)CC[C@H]1CCC(=O)O1` [ERYSULFONE], the EC50 was 21 µg/mL (≈ 109 µM).
For `C[S+]([O-])CC[C@H]1CCC(=O)O1` (stereo partly drawn) [ERYSULFOXIDE] the value was 2.3 µg/mL (≈ 13.1 µM); for `C[C@]12CC[C@H]3[C@@H](CC[C@]4(O)C[C@@H](O)CC[C@]34C=O)[C@@]1(O)CC[C@@H]2C1=CC(=O)OC1` [STROPHANTHIDIN], 0.44 µg/mL (≈ 1.09 µM).
